Our source for the ED50 values is patent US4413006A, “N-Aryl-N-phenoxy-alkyl-piperazine compounds useful in decreasing intracranial pressure” (Tanabe Seiyaku Co., Ltd., priority 1980, dated 1983).

For the assay, the system named is sodium hexobarbital-induced anesthesia. The assay can be described thus: Effect on sodium hexobarbital-induced anesthesia in mice (Experiment 2 (2)). The assay is classed as in vivo, male mice. Conditions: Mus musculus, ip, sodium hexobarbital 100 mg/kg i.p., dose prolonging sleeping time to twice control. On the procedure: (Inhibitory effect of test compound on central nervous system in mice)
Inhibitory effect of test compound on central nervous system was examined by the following methods.
A solution or suspension of a test compound in water or an aqueous carboxymethylcellulose solution was administered intraperitoneally to male mice weighing 18 to 20 g (each group consisting of 5 mice). Thirty minutes after intraperitoneal administration of the test compound, sodium hexobarbital (100 mg/kg) was administered intraperitoneally to the mice, and the sleeping time between the loss and recovery of righting reflex was measured. The 50% effective dose (ED50) of the test compound was estimated in terms of dose which is necessary to prolong the sleeping time of the medicated mice twice as long as that of a control group (i.e., non-medicated mice).

In turn, `COc1cc(NC(C)=O)ccc1OCCCN1CCN(c2ccccc2F)CC1` [NO. 3 (Table 3)] displayed a 50% effective dose (ED50) of 1.3 mg/kg.

A word on the ED50: it is the dose at which the effect has come halfway, by size or by number of responders.
